Usually IC50 stands for the concentration at which inhibition is half-maximal. Low values mean inhibition by little substance, high ones a need for much substance.

The text below walks through data of the Kinase Knowledgebase extract (Sharma et al. 2016).

Some results are limits rather than exact numbers.

For this test, the target named is ROCK2 (human) (UniProt O75116). Description: Inhibition of ROCK2 Kinase Activity.
Chain of ROCK2 (human) (O75116 whole entry, looked up): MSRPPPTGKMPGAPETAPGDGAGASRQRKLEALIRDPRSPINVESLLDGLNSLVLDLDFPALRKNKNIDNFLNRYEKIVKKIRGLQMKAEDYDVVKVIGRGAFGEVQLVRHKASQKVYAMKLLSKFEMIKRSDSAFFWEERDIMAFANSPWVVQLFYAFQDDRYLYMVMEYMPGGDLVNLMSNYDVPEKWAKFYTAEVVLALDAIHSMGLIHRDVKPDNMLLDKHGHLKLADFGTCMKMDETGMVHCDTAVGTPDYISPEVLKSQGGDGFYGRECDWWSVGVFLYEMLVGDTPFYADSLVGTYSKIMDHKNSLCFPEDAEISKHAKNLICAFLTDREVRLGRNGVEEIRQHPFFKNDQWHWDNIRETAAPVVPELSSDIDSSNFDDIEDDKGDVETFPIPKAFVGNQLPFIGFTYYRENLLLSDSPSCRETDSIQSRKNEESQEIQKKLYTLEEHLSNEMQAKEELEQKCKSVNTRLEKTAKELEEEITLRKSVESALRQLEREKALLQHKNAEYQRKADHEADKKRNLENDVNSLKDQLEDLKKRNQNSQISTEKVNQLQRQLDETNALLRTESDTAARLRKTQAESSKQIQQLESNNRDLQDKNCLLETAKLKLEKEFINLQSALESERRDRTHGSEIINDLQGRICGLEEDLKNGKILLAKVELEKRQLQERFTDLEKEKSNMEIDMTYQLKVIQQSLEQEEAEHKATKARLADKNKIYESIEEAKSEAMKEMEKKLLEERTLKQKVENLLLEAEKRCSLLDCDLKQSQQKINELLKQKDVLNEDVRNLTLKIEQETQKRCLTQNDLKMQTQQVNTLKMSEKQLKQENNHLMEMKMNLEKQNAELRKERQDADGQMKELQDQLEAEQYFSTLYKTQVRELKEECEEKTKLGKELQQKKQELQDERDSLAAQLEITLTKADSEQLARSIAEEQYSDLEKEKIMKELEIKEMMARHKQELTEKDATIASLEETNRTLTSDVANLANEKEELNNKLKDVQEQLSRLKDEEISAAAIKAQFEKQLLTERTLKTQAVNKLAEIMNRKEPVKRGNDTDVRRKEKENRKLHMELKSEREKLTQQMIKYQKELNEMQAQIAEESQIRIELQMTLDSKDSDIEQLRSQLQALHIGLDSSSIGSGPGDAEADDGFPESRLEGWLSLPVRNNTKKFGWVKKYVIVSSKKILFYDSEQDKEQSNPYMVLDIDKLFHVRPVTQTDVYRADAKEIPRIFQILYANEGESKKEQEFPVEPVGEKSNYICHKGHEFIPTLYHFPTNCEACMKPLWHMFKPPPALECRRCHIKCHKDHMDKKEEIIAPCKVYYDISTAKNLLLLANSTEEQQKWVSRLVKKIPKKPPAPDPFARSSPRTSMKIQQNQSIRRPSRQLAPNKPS
As to `NC(C(=O)NCCn1cccn1)c1ccc(C(=O)Nc2ccncc2)cc1` (stereo not drawn), the IC50 lay in the range of 500 to 5000 nM.

`NC(CNS(=O)(=O)c1ccc(-c2ccccc2)cc1)c1ccc(C(=O)Nc2ccncc2)cc1` (stereo not drawn) displayed a 50% inhibitory concentration (IC50) of 500 to 5000 nM.

With `CC[C@H](NC(=O)C(N)c1ccc(C(=O)Nc2ccncc2)cc1)c1ccccc1` (stereo partly drawn), the IC50 fell in the range of 500 to 5000 nM.

`CS(=O)(=O)NCC(N)c1ccc(C(=O)Nc2ccncc2)cc1` (stereo not drawn): the IC50 was less than 500 nM.

`NC(CNS(=O)(=O)c1ccc(Oc2ccccc2)cc1)c1ccc(C(=O)Nc2ccncc2)cc1` (stereo not drawn) had an IC50 of 500 to 5000 nM.

In the case of `N[C@H](CC(=O)N1CCC[C@@H]1c1cccc(F)c1)c1ccc(C(=O)Nc2ccncc2)cc1`, the IC50 is less than 500 nM.

For `NC(C(=O)N1CCC(Cc2ccccc2)CC1)c1ccc(C(=O)Nc2ccncc2)cc1` (stereo not drawn), the IC50 was in the range of 500 to 5000 nM.

Take `CN(CC(N)c1ccc(C(=O)Nc2ccncc2)cc1)S(=O)(=O)c1ccccc1Cl` (stereo not drawn): the IC50 was 500 to 5000 nM.

Take `NC(CNS(=O)(=O)c1cccc2nonc12)c1ccc(C(=O)Nc2ccncc2)cc1` (stereo not drawn): the IC50 is less than 500 nM.

`NC(CC(=O)N1CCCC1c1cccc(Cl)c1)c1ccc(C(=O)Nc2ccncc2)cc1` (stereo not drawn) displayed an IC50 of less than 500 nM.

The compound `CC1CN(C(=O)CC(N)c2ccc(C(=O)Nc3ccncc3)cc2)CC(C)O1` (stereo not drawn) displayed an IC50 of less than 500 nM.

`NC(C(=O)NCc1ccccc1Cl)c1ccc(C(=O)Nc2ccncc2)cc1` (stereo not drawn) returned an IC50 of less than 500 nM.

In turn, `NC(CC(=O)N1CCc2ccc(Cl)cc2C1)c1ccc(C(=O)Nc2ccncc2)cc1` (stereo not drawn) came in with an IC50 of less than 500 nM.

`NC(CC(=O)N1CCCC1c1cc(F)ccc1F)c1ccc(C(=O)Nc2ccncc2)cc1` (stereo not drawn) yielded an IC50 of less than 500 nM.

`CCNC(=O)C(N)c1ccc(C(=O)Nc2ccncc2)cc1` (stereo not drawn) yielded an IC50 of 500 to 5000 nM.

The compound `NC(CC(=O)N1CCCCC1)c1ccc(C(=O)Nc2ccncc2)cc1` (stereo not drawn) showed an IC50 of less than 500 nM.

Regarding `COc1ccc(CN2CCN(C(=O)CC(N)c3ccc(C(=O)Nc4ccncc4)cc3)CC2)cc1` (stereo not drawn), the IC50 fell in the range of 500 to 5000 nM.

`COCC(C)NC(=O)C(N)c1ccc(C(=O)Nc2ccncc2)cc1` (stereo not drawn) yielded an IC50 of 500 to 5000 nM.

`NC(C(=O)N1CC=C(c2ccc(F)cc2)CC1)c1ccc(C(=O)Nc2ccncc2)cc1` (stereo not drawn) displayed an IC50 of 500 to 5000 nM.

Turning to `CC(NC(=O)C(N)c1ccc(C(=O)Nc2ccncc2)cc1)c1ccccc1` (stereo not drawn), the IC50 is less than 500 nM.

`Cc1cccc(S(=O)(=O)NCC(N)c2ccc(C(=O)Nc3ccncc3)cc2)c1` (stereo not drawn) yielded an IC50 of less than 500 nM.

As for `Cc1ccccc1S(=O)(=O)NCC(N)c1ccc(C(=O)Nc2ccncc2)cc1` (stereo not drawn), the half-maximal inhibitory concentration (IC50) is less than 500 nM.

In turn, `Cc1ccc(S(=O)(=O)NCC(N)c2ccc(C(=O)Nc3ccncc3)cc2)cc1` (stereo not drawn) showed an IC50 of less than 500 nM.

In the case of `NC(C(=O)NCc1ccccc1)c1ccc(C(=O)Nc2ccncc2)cc1` (stereo not drawn), the IC50 was less than 500 nM.

In turn, `NC(CC(=O)N1CCC(c2ccccc2)CC1)c1ccc(C(=O)Nc2ccncc2)cc1` (stereo not drawn) displayed an IC50 of less than 500 nM.

Turning to `Cc1nn(C)c(Cl)c1S(=O)(=O)NCC(N)c1ccc(C(=O)Nc2ccncc2)cc1` (stereo not drawn), the IC50 lay in the range of 500 to 5000 nM.

In the case of `NC(CC(=O)N1CCC(c2nc3ccccc3o2)CC1)c1ccc(C(=O)Nc2ccncc2)cc1` (stereo not drawn), the IC50 is less than 500 nM.

`CN(C)CCNC(=O)C(N)c1ccc(C(=O)Nc2ccncc2)cc1` (stereo not drawn) registered an IC50 of 500 to 5000 nM.

`NC(CC(=O)N1CCCC1c1ccc(F)cc1F)c1ccc(C(=O)Nc2ccncc2)cc1` (stereo not drawn) had a concentration for half-maximal inhibition (IC50) of less than 500 nM.

On to `NC(c1ccc(C(=O)Nc2ccncc2)cc1)C1CCCN1S(=O)(=O)c1cccc(Cl)c1` (stereo not drawn), for which the IC50 was in the range of 500 to 5000 nM.

Take `CN(CC(N)c1ccc(C(=O)Nc2ccncc2)cc1)S(=O)(=O)c1ccc(Cl)cc1` (stereo not drawn): the IC50 was 500 to 5000 nM.

For `NC(CNS(=O)(=O)Cc1ccccc1)c1ccc(C(=O)Nc2ccncc2)cc1` (stereo not drawn), the IC50 was less than 500 nM.

As for `N[C@@H](CC(=O)N1CCC[C@H]1c1cccc(F)c1)c1ccc(C(=O)Nc2ccncc2)cc1`, the IC50 was less than 500 nM.

Regarding `CN(CC(N)c1ccc(C(=O)Nc2ccncc2)cc1)S(=O)(=O)c1ccccc1` (stereo not drawn), the concentration for half-maximal inhibition (IC50) was 500 to 5000 nM.

As to `NC(C(=O)NCc1ccccn1)c1ccc(C(=O)Nc2ccncc2)cc1` (stereo not drawn), the IC50 lay in the range of 500 to 5000 nM.

In the case of `NC(CC(=O)N1CCCC(CO)C1)c1ccc(C(=O)Nc2ccncc2)cc1` (stereo not drawn), the concentration for half-maximal inhibition (IC50) is less than 500 nM.

Regarding `COc1ccc(S(=O)(=O)N(C)C[C@H](N)c2ccc(C(=O)Nc3ccncc3)cc2)cc1`, the half-maximal inhibitory concentration (IC50) fell in the range of 5000 to 50000 nM.

Compound `NC(CC(=O)N1CC=C(c2ccc(F)cc2)CC1)c1ccc(C(=O)Nc2ccncc2)cc1` (stereo not drawn) displayed an IC50 of less than 500 nM.

Compound `NC(CC(=O)N1CCSC1)c1ccc(C(=O)Nc2ccncc2)cc1` (stereo not drawn) had an IC50 of less than 500 nM.

In the case of `NC(CC(=O)N1CCCCC1c1ccc(Cl)cc1)c1ccc(C(=O)Nc2ccncc2)cc1` (stereo not drawn), the half-maximal inhibitory concentration (IC50) is less than 500 nM.

`NC(CC(=O)N1CCCC1c1cccc(F)c1)c1ccc(C(=O)Nc2ccncc2)cc1` (stereo not drawn) returned an IC50 of less than 500 nM.

Compound `CCCCNNC(=O)C(N)c1ccc(C(=O)Nc2ccncc2)cc1` (stereo not drawn) showed an IC50 of less than 500 nM.

`COc1ccc(CNC(=O)C(N)c2ccc(C(=O)Nc3ccncc3)cc2)cc1` (stereo not drawn) came in with an IC50 of less than 500 nM.

As for `N[C@H](C(=O)NCc1ccccc1)c1ccc(C(=O)Nc2ccncc2)cc1`, the IC50 was less than 500 nM.

Consider `NC(CNS(=O)(=O)c1cccc2nsnc12)c1ccc(C(=O)Nc2ccncc2)cc1` (stereo not drawn), for which the IC50 is less than 500 nM.

In turn, `NC(c1ccc(C(=O)Nc2ccncc2)cc1)C1CCCN1S(=O)(=O)c1ccc(F)cc1` (stereo not drawn) returned an IC50 of 500 to 5000 nM.

In the case of `COc1ccc(S(=O)(=O)NCC(N)c2ccc(C(=O)Nc3ccncc3)cc2)cc1` (stereo not drawn), the IC50 was less than 500 nM.

Compound `NC(CNS(=O)(=O)c1ccc(Cl)cc1)c1ccc(C(=O)Nc2ccncc2)cc1` (stereo not drawn) yielded an IC50 of less than 500 nM.

Regarding `CC1CC(C)CN(C(=O)C(N)c2ccc(C(=O)Nc3ccncc3)cc2)C1` (stereo not drawn), the 50% inhibitory concentration (IC50) was less than 500 nM.

With `COc1ccc(S(=O)(=O)N(C)CC(N)c2ccc(C(=O)Nc3ccncc3)cc2)cc1` (stereo not drawn), the IC50 was less than 500 nM.

`NC(CC(=O)N1CCc2ccc(F)cc2C1)c1ccc(C(=O)Nc2ccncc2)cc1` (stereo not drawn) had an IC50 of less than 500 nM.

In turn, `CC(C)C(C)NC(=O)C(N)c1ccc(C(=O)Nc2ccncc2)cc1` (stereo not drawn) returned an IC50 of 500 to 5000 nM.

With `NC(CC(=O)N1CCCC1c1ccccc1)c1ccc(C(=O)Nc2ccncc2)cc1` (stereo not drawn), the half-inhibitory concentration (IC50) is less than 500 nM.

`NC(CNS(=O)(=O)c1cccc(-c2ccccc2)c1)c1ccc(C(=O)Nc2ccncc2)cc1` (stereo not drawn) displayed a half-inhibitory concentration (IC50) of 500 to 5000 nM.

As to `NC(CNS(=O)(=O)c1cccc(Oc2ccccc2)c1)c1ccc(C(=O)Nc2ccncc2)cc1` (stereo not drawn), the IC50 lay in the range of 500 to 5000 nM.

Turning to `NC(CC(=O)N1CCc2c([nH]c3ccccc23)C1c1cccc(Cl)c1)c1ccc(C(=O)Nc2ccncc2)cc1` (stereo not drawn), the IC50 fell in the range of 500 to 5000 nM.

With `COC(=O)c1ccc(C2CCCCN2C(=O)CC(N)c2ccc(C(=O)Nc3ccncc3)cc2)cc1` (stereo not drawn), the IC50 was less than 500 nM.

Regarding `NC(CNS(=O)(=O)c1cccc2ccccc12)c1ccc(C(=O)Nc2ccncc2)cc1` (stereo not drawn), the IC50 was less than 500 nM.

The compound `CN(CC(N)c1ccc(C(=O)Nc2ccncc2)cc1)S(=O)(=O)c1cccc(Cl)c1` (stereo not drawn) showed an IC50 of 500 to 5000 nM.

`NC(C(=O)NCCc1ccc(F)cc1)c1ccc(C(=O)Nc2ccncc2)cc1` (stereo not drawn) gave an IC50 of less than 500 nM.

`NC(C(=O)N1CCC(c2nc3ccccc3o2)CC1)c1ccc(C(=O)Nc2ccncc2)cc1` (stereo not drawn) came in with an IC50 of less than 500 nM.

Take `NC(CNS(=O)(=O)c1cccs1)c1ccc(C(=O)Nc2ccncc2)cc1` (stereo not drawn): the IC50 is less than 500 nM.

As for `NC(c1ccc(C(=O)Nc2ccncc2)cc1)C1CCCN1S(=O)(=O)c1ccc(Cl)cc1` (stereo not drawn), the IC50 lay in the range of 500 to 5000 nM.
